# Test results published in patent US9930892B2, “Molecules having pesticidal utility, and intermediates, compositions, and processes, related thereto” (Dow AgroSciences LLC, priority 2016, dated 2018).
# Columns and labels:
# [1] = test system: Cabbage Looper (Trichoplusia ni); assay: Bioassay on Cabbage Looper (CL), 128-well diet tray assay; assay type: in vivo; details: for CL % Control (or Mortality) rating: 50 μg/cm^2 on artificial diet, second instar larvae, five to seven days, 25° C.; for mortality at 0.05 µg/cm2 / mortality at 0.5 µg/cm2 / mortality at 5 µg/cm2: Trichoplusia ni, read-out: CL Percent control (or mortality); for mortality at 0.05 µg/cm2: 0.05 μg/cm^2; for mortality at 0.5 µg/cm2: 0.5 μg/cm^2; for mortality at 5 µg/cm2: 5 μg/cm^2
# Description: Bioassays on CL were conducted using a 128-well diet tray assay. One to five second instar CL larvae were placed in each well (3 mL) of the diet tray that had been previously filled with 1 mL of artificial diet to which 50 μg/cm^2 of the test molecule (dissolved in 50 μL of 90:10 acetone-water mixture) had been applied (to each of eight wells) and then allowed to dry. Trays were covered with a clear self-adhesive cover and held at 25° C., 14:10 light-dark for five to seven days. Percent mortality was recorded for the larvae in each well; activity in the eight wells was then averaged. The results are indicated in the table entitled “Table ABC: Biological Results” (See Table Section).
# (§1) Bioassays on BAW and CL were conducted according to the procedures outlined in Example A: Bioassays on Beet Armyworm (“BAW”) and Cabbage Looper (“CL”) using the indicated concentrations.
# [2] = test system: Beet Armyworm (Spodoptera exigua); assay: Bioassay on Beet Armyworm (BAW), 128-well diet tray assay; assay type: in vivo; details: for BAW % Control (or Mortality) rating: 50 μg/cm^2 on artificial diet, second instar larvae, five to seven days, 25° C.; for mortality at 0.05 µg/cm2 / mortality at 0.5 µg/cm2 / mortality at 5 µg/cm2: Spodoptera exigua, read-out: BAW Percent control (or mortality); for mortality at 0.05 µg/cm2: 0.05 μg/cm^2; for mortality at 0.5 µg/cm2: 0.5 μg/cm^2; for mortality at 5 µg/cm2: 5 μg/cm^2
# Description: Bioassays on BAW were conducted using a 128-well diet tray assay. One to five second instar BAW larvae were placed in each well (3 mL) of the diet tray that had been previously filled with 1 mL of artificial diet to which 50 μg/cm^2 of the test molecule (dissolved in 50 μL of 90:10 acetone-water mixture) had been applied (to each of eight wells) and then allowed to dry. Trays were covered with a clear self-adhesive cover and held at 25° C., 14:10 light-dark for five to seven days. Percent mortality was recorded for the larvae in each well; activity in the eight wells was then averaged. The results are indicated in the table entitled “Table ABC: Biological Results” (See Table Section).
# as §1
compound,measurement,setting,value
"C=Cc1c(Cl)cc(C(/C=C(\F)c2ccc(C(=O)NN(C)C(=O)NCC(F)(F)F)c(C(F)(F)F)c2)C(F)(F)F)cc1Cl (stereo not shown) [F17, (Z)-2-(4-(3-(3,5-Dichloro-4-vinylphenyl)-1,4,4,4-tetrafluorobut-1-en-1-yl)-2-(trifluoromethyl)benzoyl)-1-methyl-N-(2,2,2-trifluoroethyl)hydrazinecarboxamide]",CL % Control (or Mortality) rating,[1],A (50-100)
same,BAW % Control (or Mortality) rating,[2],A (50-100)
"CN(NC(=O)c1ccc(/C(F)=C/C(c2cc(Cl)c(Cl)c(Cl)c2)C(F)(F)F)cc1C(F)(F)F)C(=O)NCC(F)(F)F (stereo not shown) [F1, (Z)-1-methyl-2-(4-(1,4,4,4-tetrafluoro-3-(3,4,5-trichlorophenyl)but-1-en-1-yl)-2-(trifluoromethyl)benzoyl)-N-(2,2,2-trifluoroethyl)hydrazinecarboxamide]",CL % Control (or Mortality) rating,[1],A (50-100)
same,mortality at 0.05 µg/cm2,[1],100%
same,mortality at 0.5 µg/cm2,[1],100%
same,mortality at 5 µg/cm2,[1],100%
same,BAW % Control (or Mortality) rating,[2],A (50-100)
same,mortality at 0.05 µg/cm2,[2],100%
same,mortality at 0.5 µg/cm2,[2],100%
same,mortality at 5 µg/cm2,[2],100%
"CC(F)(F)C(/C=C(\F)c1ccc(C(=O)NNC(=O)NCC(F)(F)F)c(C(F)(F)F)c1)c1cc(Cl)c(Cl)c(Cl)c1 (stereo not shown) [F12, (Z)-2-(4-(1,4,4-Trifluoro-3-(3,4,5-trichlorophenyl)pent-1-en-1-yl)-2-(trifluoromethyl)benzoyl)-N-(2,2,2-trifluoroethyl)hydrazinecarboxamide]",CL % Control (or Mortality) rating,[1],A (50-100)
same,BAW % Control (or Mortality) rating,[2],A (50-100)
"CN(NC(=O)c1ccc(/C(F)=C/C(c2cc(Cl)c(Cl)c(Cl)c2)C(F)(F)F)cc1)C(=O)NCC(F)(F)F (stereo not shown) [FC1, (Z)-1-methyl-2-(4-(1,4,4,4-tetrafluoro-3-(3,4,5-trichlorophenyl)but-1-en-1-yl)benzoyl)-N-(2,2,2-trifluoroethyl)hydrazinecarboxamide, reference compound]",mortality at 0.05 µg/cm2,[1],0%
same,mortality at 0.5 µg/cm2,[1],0%
same,mortality at 5 µg/cm2,[1],7%
same,mortality at 0.05 µg/cm2,[2],0%
same,mortality at 0.5 µg/cm2,[2],0%
same,mortality at 5 µg/cm2,[2],25%
"CN(NC(=O)c1ccc(/C(F)=C/C(c2cc(Cl)c(Br)c(Cl)c2)C(F)(F)F)cc1C(F)(F)F)C(=O)NCC(F)(F)F (stereo not shown) [F23, (Z)-2-(4-(3-(4-Bromo-3,5-dichlorophenyl)-1,4,4,4-tetratfluorobut-1-en-1-yl)-2-(trifluoromethyl)benzoyl)-1-methyl-N-(2,2,2-trifluoroethyl)hydrazinecarboxamide]",CL % Control (or Mortality) rating,[1],A (50-100)
same,BAW % Control (or Mortality) rating,[2],A (50-100)
"O=C(CCC(F)(F)F)NNC(=O)c1ccc(/C(F)=C/C(c2cc(Cl)c(Cl)c(Cl)c2)C(F)(F)F)cc1I (stereo not shown) [F21, (Z)-2-Iodo-4-(1,4,4,4-tetrafluoro-3-(3,4,5-trichlorophenyl)but-1-en-1-yl)-N′-(4,4,4-trifluorobutanoyl)benzohydrazide]",CL % Control (or Mortality) rating,[1],A (50-100)
same,BAW % Control (or Mortality) rating,[2],A (50-100)
"O=C(NCC(F)(F)F)NNC(=O)c1ccc(/C(F)=C/C(c2cc(Cl)c(Cl)c(Cl)c2)C(F)(F)F)cc1C(F)(F)F (stereo not shown) [F3, (Z)-2-(4-(1,4,4,4-Tetrafluoro-3-(3,4,5-trichlorophenyl)but-1-en-1-yl)-2-(trifluoromethyl)benzoyl)-N-(2,2,2-trifluoroethyl)hydrazinecarboxamide]",CL % Control (or Mortality) rating,[1],A (50-100)
same,BAW % Control (or Mortality) rating,[2],A (50-100)
"CC(C)(C)C(=O)NNC(=O)c1ccc(/C(F)=C/C(c2cc(Cl)c(Cl)c(Cl)c2)C(F)(F)F)cc1C(F)(F)F (stereo not shown) [F29, (Z)—N′-Pivaloyl-4-(1,4,4,4-tetrafluoro-3-(3,4,5-trichlorophenyl)but-1-en-1-yl)-2-(trifluoromethyl)benzohydrazide]",CL % Control (or Mortality) rating,[1],A (50-100)
same,BAW % Control (or Mortality) rating,[2],A (50-100)
"CN(NC(=O)c1ccc(/C(F)=C/C(c2cc(Cl)c(Cl)c(Cl)c2)C(F)(F)F)cc1C(F)(F)F)S(=O)(=O)CCC(F)(F)F (stereo not shown) [F19, (Z)-3,3,3-trifluoro-N-methyl-N′-(4-(1,4,4,4-tetrafluoro-3-(3,4,5-trichlorophenyl)but-1-en-1-yl)-2-(trifluoromethyl)benzoyl)propane-1-sulfonohydrazide]",CL % Control (or Mortality) rating,[1],A (50-100)
same,BAW % Control (or Mortality) rating,[2],A (50-100)
"O=C(NCC(F)(F)F)NNC(=O)c1ccc(/C(F)=C/C(c2cc(Cl)c(Cl)c(Cl)c2)C(F)(F)F)cc1Br (stereo not shown) [F2, (Z)-2-(2-bromo-4-(1,4,4,4-tetrafluoro-3-(3,4,5-trichlorophenyl)but-1-en-1-yl)benzoyl)-N-(2,2,2-trifluoroethyl)hydrazinecarboxamide]",CL % Control (or Mortality) rating,[1],A (50-100)
same,BAW % Control (or Mortality) rating,[2],A (50-100)
"O=C(NNS(=O)(=O)CCC(F)(F)F)c1ccc(/C(F)=C/C(c2cc(Cl)c(Cl)c(Cl)c2)C(F)(F)F)cc1C(F)(F)F (stereo not shown) [F24, (Z)-3,3,3-Trifluoro-N′-(4-(1,4,4,4-tetrafluoro-3-(3,4,5-trichlorophenyl)but-1-en-1-yl)-2-(trifluoromethyl)benzoyl)propane-1-sulfonohydrazide]",CL % Control (or Mortality) rating,[1],A (50-100)
same,BAW % Control (or Mortality) rating,[2],A (50-100)
"CN(NC(=O)c1ccc(/C(F)=C/C(c2cc(Cl)c(Cl)c(Cl)c2)C(F)(F)F)cc1C(F)(F)F)C(=O)CCC(F)(F)F (stereo not shown) [F11, (Z)—N′-Methyl-4-(1,4,4,4-tetrafluoro-3-(3,4,5-trichlorophenyl)but-1-en-1-yl)-N′-(4,4,4-trifluorobutanoyl)-2-(trifluoromethyl)benzohydrazide]",CL % Control (or Mortality) rating,[1],A (50-100)
same,BAW % Control (or Mortality) rating,[2],A (50-100)
"O=C(CCC(F)(F)F)NNC(=O)c1ccc(/C(F)=C/C(c2cc(Cl)c(Cl)c(Cl)c2)C(F)(F)F)cc1C(F)(F)F (stereo not shown) [F4, (Z)-4-(1,4,4,4-Tetrafluoro-3-(3,4,5-trichlorophenyl)but-1-en-1-yl)-N′-(4,4,4-trifluorobutanoyl)-2-(trifluoromethyl)benzohydrazide]",CL % Control (or Mortality) rating,[1],A (50-100)
same,BAW % Control (or Mortality) rating,[2],A (50-100)
"O=C(CCC(F)(F)F)NNC(=O)c1ccc(/C(F)=C/C(c2cc(Cl)c(Cl)c(Cl)c2)C(F)(F)F)cc1Cl (stereo not shown) [F20, (Z)-2-Chloro-4-(1,4,4,4-tetrafluoro-3-(3,4,5-trichlorophenyl)but-1-en-1-yl)-N′-(4,4,4-trifluorobutanoyl)benzohydrazide]",CL % Control (or Mortality) rating,[1],A (50-100)
same,BAW % Control (or Mortality) rating,[2],A (50-100)
"CN(NC(=O)c1ccc(/C(F)=C/C(c2cc(Cl)cc(C(F)(F)F)c2)C(F)(F)F)cc1C(F)(F)F)C(=O)NCC(F)(F)F (stereo not shown) [PF9, (Z)-2-(4-(3-(3-Chloro-5-(trifluoromethyl)phenyl)-1,4,4,4-tetrafluorobut-1-en-1-yl)-2-(trifluoromethyl)benzoyl)-1-methyl-N-(2,2,2-trifluoroethyl)hydrazine-1-carboxamide]",CL % Control (or Mortality) rating,[1],A (50-100)
same,BAW % Control (or Mortality) rating,[2],A (50-100)
"Cc1cc(/C(F)=C/C(c2cc(Cl)c(Cl)c(Cl)c2)C(F)(F)F)ccc1C(=O)NN(C)C(=O)NCC(F)(F)F (stereo not shown) [F28, (Z)-1-Methyl-2-(2-methyl-4-(1,4,4,4-tetrafluoro-3-(3,4,5-trichlorophenyl)but-1-en-1-yl)benzoyl)-N-(2,2,2-trifluoroethyl)hydrazinecarboxamide]",mortality at 0.05 µg/cm2,[1],100%
same,mortality at 0.5 µg/cm2,[1],100%
same,mortality at 5 µg/cm2,[1],100%
same,mortality at 0.05 µg/cm2,[2],88%
same,mortality at 0.5 µg/cm2,[2],100%
same,mortality at 5 µg/cm2,[2],100%
